What was measured:
[1] = cited from earlier work
[2] = USP II dissolution test of NCMPs in deionized water; format: physicochemical
Method: Dissolution tests were carried out in a standard USP II apparatus with about 50 rpm paddle speed. A sample of NCMPs (n=6) containing about 8.9 mg GF were dissolved in about 1000 ml deionized water at about 37° C., and samples taken from the vessel were syringe-filtered (0.1 μm filter) and assayed via UV spectroscopy. Unlike in the re-dispersion test, the use of a large amount of water ensures substantially full solubilization of the drug in this test.

[3] = Particle size of as-received / dry powders (Rodos/Helos laser diffraction where stated); format: physicochemical; settings: as-received or dry
Method: The particle sizes of GF suspensions after milling in Runs 2, 3, and 5 (about 10% GF/about 2.5% HPC) indicate that the milling results were fairly reproducible. […] The dry particle size of CCS, as measured by Rodos/Helos laser diffraction system, was D10: 12.90 μm, D50: 28.55 μm, and D90: 66.09 The particle size increased to D10:13.74 μm, D50: 63.68 μm and D90: 96.28 μm after about 3 h swelling in de-ionized water as measured by Coulter LS13320 with the liquid module.
The suspensions were coated onto Pharmatose® carrier particles in the fluidized bed processor. The particle size statistics of Pharmatose® as measured by Rodos is D10: 58 μm, D50: 116 μm and D90: 206 μm. The median particle size of Pharmatose® increased from about 116 μm to about 120-150 μm due to coating and some agglomeration.

GF dissolved in about 60 min [2]	particle size D10 of as-received / dry powder [3]	particle size D50 of as-received / dry powder [3]	particle size D90 of as-received / dry powder [3]	SMILES	solubility in water ([1]; water)	solubility in methanol ([1]; methanol, about 25° C.)
				OC[C@@H](O)[C@@H](O)[C@H](O)[C@H](O)CO [Mannitol]	about 180 g/L	
about 14%	3.9 μm	16.0 μm	47.4 μm	COC1=CC(=O)C[C@@H](C)[C@]12Oc1c(Cl)c(OC)cc(OC)c1C2=O [GF, griseofulvin]		about 30 mg/ml

— patent publication US9931300B2, “Methods for superdisintegrant-based composite particles for dispersion and dissolution of active pharmaceutical agents” (New Jersey Institute of Technology, priority 2012, dated 2018)
